Key:
[1] = system: NIS (sodium iodide symporter); test: Western blot of endogenous NIS protein (total, membrane, cytosolic); type: cell-based, human
Experimental: 8505C-PNIS-PCMV cells were treated with TKI-0266 and incubated for 24 hours, and then the cell pellet was washed twice with cold phosphate-buffered saline (hereinafter referred to as PBS). An RIPA buffer (Thermo Fisher Scientific, USA) containing a protease/phosphatase cocktail inhibitor kit (Thermo Fisher Scientific) was added to the cell pellet to lyse the cells. The lysed cells were gently vortexed three times at a time interval, and centrifuged at 13000xg at 4° C. to isolate a soluble protein. The isolated protein was quantified using a BCA protein assay kit (Thermo Fisher Scientific).
Membrane protein and cytosolic protein were isolated using Mem-PET™ plus kit (Thermo Fisher scientific) according to the manufacturer's protocols. Briefly, the collected cell pellet was washed with a cell wash solution and centrifuged at 300xg for 5 minutes, and this washing and centrifugation process was repeated two times. After centrifugation, the supernatant was discarded, and a permeabilization buffer was added to the cell pellet, followed by vortexing. Thereafter, the cell pellet was left to stand at 4° C. for 10 minutes with continuous stirring. After centrifugation, the supernatant containing cytosolic protein was collected, and a solubilization buffer was added to the remaining cell pellet which was then left to stand at 4° C. for 10 minutes with continuous stirring. After centrifugation again at 300xg for 5 minutes, the membrane protein was transferred into a fresh tube.
Equal amounts of proteins were separated by 10% SDS-PAGE (sodium dodecyl sulfate-polyacrylamide gel electrophoresis), and then the proteins were transferred to PVDF membranes (Millipore, USA). The PVDF membrane was blocked with 3% BSA (bovine serum albumin) in TBS containing Tween-20 (TBS-T) for 1 hour, and incubated with primary antibodies in 0.5% BSA overnight at 4° C. The next day, the PVDF membrane was incubated with HRP-conjugated secondary antibodies at room temperature for 1 hour, and washed three times with TBS-T. The protein bands were visualized using ECL detection reagent (GE Healthcare Life Sciences, Italy) and the Fusion FX chemiluminescence analyzer system (Vilber lourmat, France). […]

8505C cells [2] = test: In vitro 125I uptake assay; type: cell-based, human; conditions: anaplastic thyroid cancer cells, 24 hours treatment
Experimental: 8505C cells (1.25×10^5) were seeded and incubated in a 24-well plate for 24 hours, and then treated with TKI-0266 and further incubated for 24 hours. Thereafter, the medium was removed, and the cells were washed with bHBSS (Hank's balanced salt solution containing 0.5% BSA). The cells were incubated with 500 μl of bHBSS, 3.7 kBq carrier-free ^125I (Perkin-Elmer), and 10 μmol/L sodium iodide (specific activity of 740 MBq/mmol) at 37° C. for 30 minutes. Thereafter, the cells were washed twice with cold bHBSS and lysed by adding 500 μL of 2% SDS solution thereto. Radioactivity was measured using a Cobra II gamma-counter (Canberra Packard, Canada). The ^125I uptake values were normalized by comparing the amount of total protein determined by BCA protein assay kit.

8505C cells [3] = test: 131I clonogenic assay; type: cell-based, human
Experimental: 8505C cells (4×10^5) cells were seeded in a six-well plate, and then treated with TKI-0266 and incubated for 24 hours. Next, the medium was removed, and the cells were washed twice with bHBSS, and then incubated in the presence or absence of 50 μCi/ml ^131I (KIRAMS, Korea) containing 30 μM NaI for 7 hours at 37° C. After incubation, the cells were washed twice with bHBSS, re-seeded in a new six-well plate at a density of 1,000 cells/well, and then incubated for 7 days to induce colony formation. On day 7, the medium was removed and the cells were washed twice with PBS. A fixation buffer containing acetic acid:methanol at a ratio of 1:7 was added to the cells and the plate was left to stand at room temperature for 5 minutes to fix colonies. The fixed colonies were stained with 0.05% crystal violet for 1 hour and immersed in tap water to remove crystal violet. The colonies containing 50 or more cells were counted. Percentage inhibition was calculated as the number of colonies formed in the TKI-0266-treated group relative to the vehicle control.

[4] = system: anaplastic thyroid cancer xenograft (8505C-PNIS-PCMV); test: In vivo bioluminescence imaging of F-luc2 (NIS expression); set-up: species or system Balb/c nude mice; conditions: 50 mg/kg every day for 5 days, D-luciferin
Experimental: Female Balb/c nude mice, 5.5-week old with an average weight of 18.9±0.37 g (mean±standard deviation [SD]), were purchased (Hamamatsu, Shizuoka, Japan). The mice were acclimated under specific pathogen-free conditions for one week before starting the experiment, and were maintained at a temperature of 20 to 25° C. and a relative humidity of 40 to 70%. To establish anaplastic thyroid cancer xenograft mouse models, 8505C-PNIS-PCMV s (5×10^6) were mixed with Matrigel (Corning) at a ratio of 1:1 and injected subcutaneously into the right flank region of each mouse.
In order to examine whether the expression of NIS would be increased by TKI-0266, mice for use in the experiment were divided into two groups (n=5): the vehicle group; and the TKI-0266-administered group (50 mg/kg). 50 mg/kg of TKI-0266 was administered intravenously to the established anaplastic thyroid cancer xenograft mice every day for 5 days. On day 0 (before administration of TKI-0266) and day 6 after the start of administration of TKI-0266, to measure the R-luc signal with IVIS Lumina III, h-coelenterazine (15 μg/ml) was administered to the mice by intravenous injection. Next, D-luciferin (150 μg/ml) was administered intraperitoneally to the mice, and the bioluminescence image (hereinafter referred to as BLI) was acquired.

Cc1cc2c(N(C)C3CCCCC3)ncnc2s1 [TKI-0266]
expression of endogenous NIS protein ([1]; 8505C-PNIS-PCMV cells, 24 hours, Western blot): significantly increased
treatment concentration with the highest NIS protein expression ([1]; 8505C-PNIS-PCMV cells, Western blot): 12.5 µM
expression of cytosolic NIS protein ([1]; cytosolic protein fraction): uptick
expression of membrane NIS protein ([1]; membrane protein fraction): increased mainly in the cell membrane
iodine uptake compared to vehicle group (8505C cells [2]): significantly increased
colony-forming ability compared to vehicle group (8505C cells [3]; TKI-0266 alone): decreased
colony-forming ability compared to vehicle, 131I-treated and TKI-0266-treated groups (8505C cells [3]; co-treated with 131I and TKI-0266): significantly decreased
activity of F-luc2 in vivo (NIS expression) [4]: significantly increased
